Reference: patent publication US10696615B2, “Prenylated hydroxystilbenes” (The University of Sydney, priority 2011, dated 2020)

Columns and labels:
Type in all cases: cell-based, human
K-562 = assay: NCI in vitro cancer screen, Leukemia; conditions: K-562, unit not printed (M)
SR = assay: NCI in vitro cancer screen, Leukemia; conditions: unit not printed (M)
A549/ATCC = assay: NCI in vitro cancer screen, Non-Small Cell Lung Cancer; conditions: unit not printed (M)
EKVX = assay: as above; conditions: unit not printed (M)
NCI-H226 = assay: as above; conditions: NCI-H226, unit not printed (M)
NCI-H322M = assay: as above; conditions: unit not printed (M)
NCI-H522 = assay: as above; conditions: NCI-H522, unit not printed (M)
HCC-2998 = assay: NCI in vitro cancer screen, Colon Cancer; conditions: HCC-2998, unit not printed (M)
HCT-116 = assay: NCI in vitro cancer screen, Colon Cancer; conditions: HCT-116, unit not printed (M)
SW-620 = assay: NCI in vitro cancer screen, Colon Cancer; conditions: SW-620, unit not printed (M)
SF-295 = assay: NCI in vitro cancer screen, CNS Cancer; conditions: SF-295, unit not printed (M)
SNB-19 = assay: NCI in vitro cancer screen, CNS Cancer; conditions: SNB-19, unit not printed (M)
SNB-75 = assay: NCI in vitro cancer screen, CNS Cancer; conditions: SNB-75, unit not printed (M)
M14 = assay: NCI in vitro cancer screen, Melanoma; conditions: M14, unit not printed (M)
MDA-MB-435 = assay: NCI in vitro cancer screen, Melanoma; conditions: MDA-MB-435, unit not printed (M)
SK-MEL-28 = assay: NCI in vitro cancer screen, Melanoma; conditions: SK-MEL-28, unit not printed (M)
SK-MEL-5 = assay: NCI in vitro cancer screen, Melanoma; conditions: SK-MEL-5, unit not printed (M)
UACC-257 = assay: NCI in vitro cancer screen, Melanoma; conditions: UACC-257, unit not printed (M)
IGROV1 = assay: NCI in vitro cancer screen, Ovarian Cancer; conditions: IGROV1, unit not printed (M)
OVCAR-3 = assay: NCI in vitro cancer screen, Ovarian Cancer; conditions: OVCAR-3, unit not printed (M)
OVCAR-8 = assay: NCI in vitro cancer screen, Ovarian Cancer; conditions: OVCAR-8, unit not printed (M)
SK-OV-3 = assay: NCI in vitro cancer screen, Ovarian Cancer; conditions: SK-OV-3, unit not printed (M)
786-0 = assay: NCI in vitro cancer screen, Renal Cancer; conditions: 786-0, unit not printed (M)
ACHN = assay: NCI in vitro cancer screen, Renal Cancer; conditions: unit not printed (M)
RXF-393 = assay: NCI in vitro cancer screen, Renal Cancer; conditions: Homo sapiens, RXF 393, unit not printed (M)
DU-145 = assay: NCI in vitro cancer screen, Prostate Cancer; conditions: DU-145, unit not printed (M)
MCF7 = assay: NCI in vitro cancer screen, Breast Cancer; conditions: MCF7, unit not printed (M)
[1] = tested on: MDA-MB-231 (MDA-MB-231/ATCC); assay: NCI in vitro cancer screen, Breast Cancer; conditions: MDA-MB-231/ATCC, unit not printed (M)
HS 578T = assay: NCI in vitro cancer screen, Breast Cancer; conditions: unit not printed (M)
MDA-MB-468 = assay: NCI in vitro cancer screen, Breast Cancer; conditions: MDA-MB-468, unit not printed (M)
[2] = Homo sapiens, read-out: LC50 (the source's name)

With `COc1cc(/C=C/c2cc(O)cc(O)c2CC=C(C)C)ccc1O` [USYDS10, (E)-2-(3-methyl-2-buten-1-yl)-3,4′,5-trihydroxy-3′-methoxystilbene] the GI50 (K-562; Homo sapiens, K562) was 0.386 µM, the CC50 (K-562; Homo sapiens, K562, read-out: LC50 (the source's name)) was > 100 µM and the TGI (K-562) was 3.17E−5. The GI50 (SR; Homo sapiens) was 0.188 µM, the CC50 (SR; [2]) was > 100 µM and the TGI (SR) was >1.00E−4. The GI50 (A549/ATCC; Homo sapiens) was 0.66 µM, the CC50 (A549/ATCC; [2]) was > 100 µM and the TGI (A549/ATCC) was 2.25E−5. For the same compound, the GI50 (EKVX; Homo sapiens) was 12.2 µM, the CC50 (EKVX; [2]) was > 100 µM and the TGI (EKVX) was 7.34E−5. The GI50 (NCI-H226; Homo sapiens) was 5.35 µM, the LC50 (50% lethal concentration) (NCI-H226; Homo sapiens) was > 100 µM and the TGI (NCI-H226) was 3.50E−5. It also gave a GI50 (NCI-H322M; Homo sapiens) of 11.8 µM, an LC50 (50% lethal concentration) (NCI-H322M; Homo sapiens) of 83.7 µM and a TGI (NCI-H322M) of 3.14E−5. The GI50 (NCI-H522; Homo sapiens) was 0.349 µM, the CC50 (NCI-H522; [2]) was 42.2 µM and the TGI (NCI-H522) was 1.46E−5. It also gave a TGI (HCC-2998) of 1.19E−5, a GI50 (HCC-2998; Homo sapiens) of 1.81 µM and a CC50 (HCC-2998; [2]) of 39.8 µM. It also gave a TGI (HCT-116) of 1.30E−5, a GI50 (HCT-116; Homo sapiens) of 0.48 µM and an LC50 (concentration killing 50% of cells) (HCT-116; Homo sapiens) of 42.7 µM. For the same compound, the GI50 (SW-620; Homo sapiens) was 0.362 µM, the CC50 (SW-620; [2]) was 85.5 µM and the TGI (SW-620) was 2.15E−5. The GI50 (SF-295; Homo sapiens) was 2.01 µM, the CC50 (SF-295; [2]) was > 100 µM and the TGI (SF-295) was 1.91E−5. The GI50 (SNB-19; Homo sapiens) was 0.613 µM, the CC50 (SNB-19; [2]) was > 100 µM and the TGI (SNB-19) was 2.28E−5. The GI50 (SNB-75; Homo sapiens) was 0.236 µM, the CC50 (SNB-75; [2]) was 36.1 µM and the TGI (SNB-75) was 1.22E−5. The GI50 (M14; Homo sapiens) was 0.284 µM, the CC50 (M14; [2]) was 41.6 µM and the TGI (M14) was 1.42E−5. The GI50 (MDA-MB-435; Homo sapiens) was 0.0385 µM, the CC50 (MDA-MB-435; [2]) was > 100 µM and the TGI (MDA-MB-435) was 2.56E−7. For the same compound, the GI50 (SK-MEL-28; Homo sapiens) was 0.572 µM, the LC50 (SK-MEL-28; Homo sapiens) was 43 µM and the TGI (SK-MEL-28) was 1.69E−5. For the same compound, the GI50 (SK-MEL-5; Homo sapiens) was 0.291 µM, the CC50 (SK-MEL-5; [2]) was 36 µM and the TGI (SK-MEL-5) was 1.27E−5. The GI50 (UACC-257; Homo sapiens) was 11.7 µM, the CC50 (UACC-257; [2]) was 73.7 µM and the TGI (UACC-257) was 2.94E−5. The GI50 (IGROV1; Homo sapiens, IGROV-1) was 2.03 µM, the CC50 (IGROV1; Homo sapiens, IGROV-1, read-out: LC50 (the source's name)) was > 100 µM and the TGI (IGROV1) was >1.00E−4. For the same compound, the GI50 (OVCAR-3; Homo sapiens) was 0.372 µM, the CC50 (OVCAR-3; [2]) was > 100 µM and the TGI (OVCAR-3) was 2.03E−5. The GI50 (OVCAR-8; Homo sapiens) was 0.467 µM, the CC50 (OVCAR-8; [2]) was > 100 µM and the TGI (OVCAR-8) was 6.50E−5. The GI50 (SK-OV-3; Homo sapiens) was 0.422 µM, the CC50 (SK-OV-3; [2]) was 34.2 µM and the TGI (SK-OV-3) was 1.14E−5. The TGI (786-0) was 2.01E−5, the GI50 (786-0; Homo sapiens) was 0.681 µM and the LC50 (50% net cell kill) (786-0; Homo sapiens) was 74.5 µM. The GI50 (ACHN; Homo sapiens) was 0.903 µM, the CC50 (ACHN; [2]) was > 100 µM and the TGI (ACHN) was 3.79E−5. For the same compound, the GI50 (RXF-393) was 0.221 µM, the CC50 (RXF-393; read-out: LC50 (the source's name)) was 37.6 µM and the TGI (DU-145) was 2.05E−5. For the same compound, the GI50 (DU-145; Homo sapiens) was 0.442 µM, the CC50 (DU-145; [2]) was > 100 µM and the GI50 (MCF7; Homo sapiens) was 0.332 µM. For the same compound, the CC50 (MCF7; [2]) was 50.6 µM, the TGI (MCF7) was 1.30E−5 and the GI50 ([1]; Homo sapiens) was 0.642 µM. The CC50 [1, 2] was > 100 µM, the TGI [1] was 3.20E−5 and the GI50 (HS 578T; Homo sapiens) was 0.292 µM. For the same compound, the CC50 (HS 578T; [2]) was > 100 µM, the TGI (HS 578T) was 2.60E−5 and the GI50 (MDA-MB-468; Homo sapiens) was 0.373 µM. The CC50 (MDA-MB-468; [2]) was 44.9 µM and the TGI (MDA-MB-468) was 1.44E−5.
